Data taken from ChEMBL document CHEMBL1129009, “New aza-thioxanthones: Synthesis and cytotoxicity” (Bioorg Med Chem Lett, 1996).

What was measured:
Assay type in all cases: functional, cell-based
Conditions in all cases: Homo sapiens
SK-OV-3 = assay: Compound was evaluated for cytotoxicity against ovarian carcinoma […] cell line
HOP-92 = assay: Compound was evaluated for cytotoxicity against non small lung cancer HOP-92 cell line
MCF7 = assay: Compound was evaluated for cytotoxicity against breast cancer MCF-7 cell lines
MOLT-4 = assay: Compound was evaluated for cytotoxicity against leukemic MOLT-4 cell lines
SW-620 = assay: Compound was evaluated for cytotoxicity against colon SW-620 cell line

Structure (SMILES)	IC50 (SK-OV-3) [µM]	IC50 (HOP-92) [µM]	IC50 (MCF7) [µM]	IC50 (MOLT-4) [µM]	IC50 (SW-620) [µM]
O=C(CN1CCCCC1)Nc1ccc2sc3ccccc3c(=O)c2n1	21.4	15.1	19.4	2.69	5.42
O=C(CCN1CCOCC1)Nc1ccc2sc3ccccc3c(=O)c2n1	47.6	45.3	49.8	–	27.3
CCN(CC)CCC(=O)Nc1ccc2sc3ccccc3c(=O)c2n1	20.5	–	13.3	7.77	12
O=C(CCN1CCCCC1)Nc1ccc2sc3ccccc3c(=O)c2n1	23.2	0.41	15.9	2.56	8.31
O=C(CCN1CCCC1)Nc1ccc2sc3ccccc3c(=O)c2n1	5.23	18.1	17	3.42	15.5
O=C(CN1CCCC1)Nc1ccc2sc3ccccc3c(=O)c2n1	20.6	27.3	27.2	1.91	4.96
